Assay [1] deals with T1, HIV Env six-helix bundle (6HB) structure (Human immunodeficiency virus type 1 group M subtype B, UniProt P04579).
T1 construct: H9 cells chronically infected with HIV-1 (H9/HIV-1RF); endogenous in cells; host or cells: H9 cells chronically infected with HIV-1 strain RF (Env is made from the virus in the infected cells, not by transfection)
Nature of the assay: Six-helix bundle (6HB) assay. In kind it is cell-based, HIV-1 (strain RF). Here is the method: 3×10^6H9 cells were incubated with 1 mL of HIV-1 (strain RF) supplemented with 40 μg/mL of DEAE-dextran. Virus and cells were incubated together at 37° C. for 2-4 hours with sporadic shaking to resuspend cells. 10 mL of media (RPMI 1640 containing 10% fetal bovine serum and supplemented with 50 μg/mL gentamicin) was then added and the virus-cell coculture was incubated at 37° C. in a humidified 5% CO2 incubator. 3 days post-infection and every 2-3 days thereafter, the infected H9/HIV-1RF cells were centrifuged, the supernatant was removed, and the cells were resuspended at a density of 0.3×10^6 cells/mL in media (RPMI 1640 containing 10% fetal bovine serum and supplemented with 50 μg/mL gentamicin). Chronically infected H9/HIV-1RF cells were used in experiments starting 12-15 days after infection and up to 40 days post-infection.
This assay determines the effect of compounds on conformational changes in HIV envelope glycoprotein (Env) that are required in order for Env to mediate the fusion of the viral and cellular membranes during virus entry and infection. Specifically, this assay measures the effect of compounds on the formation of the HIV Env six-helix bundle (6HB) structure.
H9 cells chronically infected with HIV-1 (H9/HIV-1RF) were resuspended in Stain/Wash Buffer (1% bovine serum albumin, 0.1% sodium azide in phosphate-buffered saline) and aliquoted at 2.5×10^5 cells per well into 96-well V-bottom plates containing various concentrations of test compounds. Cells and compounds were incubated for 30 minutes at 37° C. Recombinant soluble CD4 (sCD4) was then added to a final concentration of 1 μg/mL. Negative control wells contained no sCD4 and no test compound. Positive control wells contained sCD4 but no test compound. The plate was incubated for 1 hour at 37° C. to allow the sCD4 to bind to HIV Env and induce conformational changes in the Env protein. Antibody that is specific for the HIV Env six-helix bundle conformation was then added (1 μL polyclonal rabbit serum per well), and the plate was incubated for an additional 1 hour at 37° C. to permit antibody binding. The cells were then washed once with Stain/Wash Buffer to remove compound and excess antibody. The cells were resuspended in Stain/Wash Buffer containing PE-labeled anti-rabbit secondary antibody (KPL) at 0.25 μg per well. The cells were incubated for 45 min at 4° C. to permit secondary antibody binding. Fluorescence was detected using a BD FACSArray™ bioanalyzer. Compounds that inhibited Env conformational changes were identified as those that decreased primary antibody binding to the six-helix bundle epitope resulting in a decrease in fluorescence signal.

The subject of assay [2] is HIV-1, NL4-3 strain. Kind of assay: Virus infection assay (virus entry and single-cycle infection). In kind it is cell-based. To be noted: Human immunodeficiency virus 1, NL43, TZM-b1, read-out: Nl4. Here is the method:
TZM-b1 indicator cells were propagated in Dulbecco's Modified Eagle's Medium (DMEM) containing 10% fetal bovine serum (FBS, heat-inactivated) and supplemented with gentamicin (50 ug/mL).
This assay determines the effects of compounds on virus entry and single-cycle infection of cells. In this assay, virus (HIV-1, NL4-3 strain) is added to indicator cells expressing the CD4 receptor and both the CXCR4 and CCR5 co-receptor. The cells contain both a lac Z and a luciferase reporter gene under control of the viral LTR transcription promoter. The cells and virus are incubated together in the presence of various concentrations of test compounds. Successful infection of the cells by the virus permits activation of the reporter gene by the viral Tat transcription factor. The resulting beta-galactosidase or luciferase activity is quantitated using a chemiluminescent substrate and a luminescent plate reader.
Specifically, one day prior to infection, 1.5×10^4 TZM-b1 indicator cells were added to each well of a 96-well microtiter plate. On the day of the experiment, virus (MOI 0.01) in 50 μL of medium (Dulbecco's Modified Eagle's Medium) supplemented with DEAE-dextran at a final concentration of 80 μg/mL was added to cells along with various concentrations of test compound in 50 μL of Dulbecco's Modified Eagle's Medium. Control wells had virus alone. Following a 4 hr incubation at 37° C., complete media [DMEM supplemented with 10% fetal bovine serum (FBS, heat-inactivated) and gentamicin (50 ug/mL)] was added. One day post-infection the level of virus infection was quantitated by detection of β-galactosidase expression using the Gal-Screen system (Applied Biosystems).

The structures appear in SMILES notation.

T1 sequence (P04579 32-519): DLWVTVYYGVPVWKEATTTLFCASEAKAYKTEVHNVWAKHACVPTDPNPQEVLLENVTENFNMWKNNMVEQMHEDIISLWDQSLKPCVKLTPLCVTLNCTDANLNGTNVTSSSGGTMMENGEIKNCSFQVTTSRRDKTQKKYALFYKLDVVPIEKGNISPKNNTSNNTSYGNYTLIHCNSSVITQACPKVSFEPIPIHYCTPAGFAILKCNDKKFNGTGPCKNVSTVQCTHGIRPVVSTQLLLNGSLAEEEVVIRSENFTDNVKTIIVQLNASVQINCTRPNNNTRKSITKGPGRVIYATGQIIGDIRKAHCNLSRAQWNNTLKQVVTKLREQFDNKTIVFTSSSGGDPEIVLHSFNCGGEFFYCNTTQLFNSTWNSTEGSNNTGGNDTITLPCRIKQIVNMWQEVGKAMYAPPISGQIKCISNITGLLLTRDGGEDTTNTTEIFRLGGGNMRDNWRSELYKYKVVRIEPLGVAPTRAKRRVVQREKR
T1 sequence (P04579 520-865): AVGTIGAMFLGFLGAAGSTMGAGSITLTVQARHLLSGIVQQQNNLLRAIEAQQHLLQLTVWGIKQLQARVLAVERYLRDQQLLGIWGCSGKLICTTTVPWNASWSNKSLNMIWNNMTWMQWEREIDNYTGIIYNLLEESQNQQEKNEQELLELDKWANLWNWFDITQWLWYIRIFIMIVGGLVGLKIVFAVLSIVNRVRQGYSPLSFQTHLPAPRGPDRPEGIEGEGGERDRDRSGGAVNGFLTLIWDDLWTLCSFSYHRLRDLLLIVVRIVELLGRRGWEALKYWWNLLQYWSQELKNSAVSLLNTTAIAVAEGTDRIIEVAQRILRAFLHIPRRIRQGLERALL

Turning to `COc1ccc(-c2nc3c(C(=O)N4CCN(C(CO)c5cccc(C#N)c5)C[C@H]4C)cnn3c(C(F)(F)F)c2C)cc1` (stereo partly drawn) [benzonitrile, 3-[2-hydroxy-1-[(3R)-4-[[5-(4-methoxyphenyl)-6-methyl-7-(trifluoromethyl)pyrazolo[1,5-α]pyrimidin-3-yl]carbonyl]-3-methyl-1-piperazinyl]ethyl]-], the IC50 in assay [1] and in assay [2] was < 1000 nM throughout.
Consider `COc1ccc(-c2nc3c(C(=O)N4CCN([C@@H](C)c5ccc(C#N)cc5)C[C@H]4C)cnn3c(C(F)(F)F)c2C)cc1` [benzonitrile, 4-[(1S)-1-[(3R)-4-[[5-(4-methoxyphenyl)-6-methyl-7-(trifluoromethyl)pyrazolo[1,5-α]pyrimidin-3-yl]carbonyl]-3-methyl-1-piperazinyl]ethyl]-], for which the IC50 is 1100 to 10000 nM in assay [1] and < 1000 nM in assay [2].
Take `COc1ccc(-c2nc3c(C(=O)N4CCN(C(CO)c5cccc(NC(=O)OC(C)(C)C)c5)C[C@H]4C)cnn3c(C(F)(F)F)c2C)cc1` (stereo partly drawn) [carbamic acid, N-[3-[2-hydroxy-1-[(3R)-4-[[5-(4-methoxyphenyl)-6-methyl-7-(trifluoromethyl)pyrazolo[1,5-α]pyrimidin-3-yl]carbonyl]-3-methyl-1-piperazinyl]ethyl]phenyl]-, 1,1-dimethylethyl ester]: the IC50 in assay [1] and in assay [2] was 1100 to 10000 nM each time.
`COc1ccc(-c2nc3c(C(=O)N4CCN([C@@H](C)c5cccc(NC(=O)OC(C)(C)C)c5)C[C@H]4C)cnn3c(C(F)(F)F)c2C)cc1` [carbamic acid, N-[3-[(1S)-1-[(3R)-4-[[5-(4-methoxyphenyl)-6-methyl-7-(trifluoromethyl)pyrazolo[1,5-α]pyrimidin-3-yl]carbonyl]-3-methyl-1-piperazinyl]ethyl]phenyl]-, 1,1-dimethylethyl ester]: the figures for the IC50 in assay [1] and in assay [2] were 1100 to 10000 nM and > 10100 nM, respectively.
In the same order, the values of `COc1ccc(-c2nc3c(C(=O)N4CCN([C@@H](C)c5ccc(NC(=O)OC(C)(C)C)cc5)C[C@H]4C)cnn3c(C(F)(F)F)c2C)cc1` [carbamic acid, N-[4-[(1S)-1-[(3R)-4-[[5-(4-methoxyphenyl)-6-methyl-7-(trifluoromethyl)pyrazolo[1,5-α]pyrimidin-3-yl]carbonyl]-3-methyl-1-piperazinyl]ethyl]phenyl]-, 1,1-dimethylethyl ester] are > 10100 nM and < 1000 nM.
In the same order, the values of `COc1ccc(-c2nc3c(C(=O)N4CCN(C(CO)c5ccccc5NC(=O)C5CC5)C[C@H]4C)cnn3c(C(F)(F)F)c2C)cc1` (stereo partly drawn) [cyclopropanecarboxamide, N-[2-[2-hydroxy-1-[(3R)-4-[[5-(4-methoxyphenyl)-6-methyl-7-(trifluoromethyl)pyrazolo[1,5-α]pyrimidin-3-yl]carbonyl]-3-methyl-1-piperazinyl]ethyl]phenyl]-] are > 10100 nM and > 10100 nM.
As to `COc1ccc(-c2nc3c(C(=O)N4CCN(C(CO)c5cccc(NC(=O)C6CC6)c5)C[C@H]4C)cnn3c(C(F)(F)F)c2C)cc1` (stereo partly drawn) [cyclopropanecarboxamide, N-[3-[2-hydroxy-1-[(3R)-4-[[5-(4-methoxyphenyl)-6-methyl-7-(trifluoromethyl)pyrazolo[1,5-α]pyrimidin-3-yl]carbonyl]-3-methyl-1-piperazinyl]ethyl]phenyl]-], the IC50 in assay [1] and in assay [2] was < 1000 nM each time.
With `COc1ccc(-c2nc3c(C(=O)N4CCN([C@@H](CO)c5ccccc5)C[C@H]4C)cnn3c(C(F)(F)F)c2C)cc1` [drawing 184, methanone, [(2R)-4-[(1R)-2-hydroxy-1-phenylethyl]-2-methyl-1-piperazinyl][5-(4-methoxyphenyl)-7-(trifluoromethyl)pyrazolo[1,5-α]pyrimidin-3-yl]-], the IC50 in assay [1] and in assay [2] was < 1000 nM each time.
`COc1ccc(-c2nc3c(C(=O)N4CCN(C(CO)c5cccc(C(C)=O)c5)C[C@H]4C)cnn3c(C(F)(F)F)c2C)cc1` (stereo partly drawn) [ethanone, 1-[3-[2-hydroxy-1-[(3R)-4-[[5-(4-methoxyphenyl)-6-methyl-7-(trifluoromethyl)pyrazolo[1,5-α]pyrimidin-3-yl]carbonyl]-3-methyl-1-piperazinyl]ethyl]phenyl]-]: the IC50 in assay [1] and in assay [2] was < 1000 nM throughout.
With `COc1ccc(-c2nc3c(C(=O)N4CCN(C(CO)c5cc(C(C)=O)ccc5F)C[C@H]4C)cnn3c(C(F)(F)F)c2C)cc1` (stereo partly drawn) [ethanone, 1-[4-fluoro-3-[2-hydroxy-1-[(3R)-4-[[5-(4-methoxyphenyl)-6-methyl-7-(trifluoromethyl)pyrazolo[1,5-α]pyrimidin-3-yl]carbonyl]-3-methyl-1-piperazinyl]ethyl]phenyl]-], the IC50 in assay [1] and in assay [2] was < 1000 nM throughout.
For the compound `COc1ccc(-c2nc3c(C(=O)N4CCN([C@H](CO)c5ccc(C(C)=O)s5)C[C@H]4C)cnn3c(C(F)(F)F)c2C)cc1` [ethanone, 1-[5-[(1R)-2-hydroxy-1-[(3R)-4-[[5-(4-methoxyphenyl)-6-methyl-7-(trifluoromethyl)pyrazolo[1,5-α]pyrimidin-3-yl]carbonyl]-3-methyl-1-piperazinyl]ethyl]-2-thienyl]-], the IC50 was < 1000 nM in assay [1] and 1100 to 10000 nM in assay [2].
For the compound `COc1ccc(-c2nc3c(C(=O)N4CCN([C@@H](CO)c5ccc(C(C)=O)s5)C[C@H]4C)cnn3c(C(F)(F)F)c2C)cc1` [ethanone, 1-[5-[(1S)-2-hydroxy-1-[(3R)-4-[[5-(4-methoxyphenyl)-6-methyl-7-(trifluoromethyl)pyrazolo[1,5-α]pyrimidin-3-yl]carbonyl]-3-methyl-1-piperazinyl]ethyl]-2-thienyl]-], the results for the IC50 in assay [1] and in assay [2] were < 1000 nM and 1100 to 10000 nM, respectively.
As for `COc1ccc(-c2nc3c(C(=O)N4CCN(C(CNS(C)(=O)=O)c5ccccc5)C[C@H]4C)cnn3c(C(F)(F)F)c2C)cc1` (stereo partly drawn) [methanesulfonamide, N-[2-[(3R)-4-[[5-(4-methoxyphenyl)-6-methyl-7-(trifluoromethyl)pyrazolo[1,5-α]pyrimidin-3-yl]carbonyl]-3-methyl-1-piperazinyl]-2-phenylethyl]-, 2,2,2-trifluoroacetate], the IC50 in assay [1] and in assay [2] was < 1000 nM each time.
Regarding `COc1ccc(-c2nc3c(C(=O)N4CCN([C@@H](C)c5cccc(NS(C)(=O)=O)c5)C[C@H]4C)cnn3c(C(F)(F)F)c2C)cc1` [methanesulfonamide, N-[3-[(1S)-1-[(3R)-4-[[5-(4-methoxyphenyl)-6-methyl-7-(trifluoromethyl)pyrazolo[1,5-α]pyrimidin-3-yl]carbonyl]-3-methyl-1-piperazinyl]ethyl]phenyl]-], the IC50 in assay [1] and in assay [2] was < 1000 nM in each case.
Regarding `COc1ccc(-c2nc3c(C(=O)N4CCN(C(CO)c5ccccc5)CC4)cnn3c(C(F)(F)F)c2C)cc1` (stereo not drawn) [methanone, [4-(2-hydroxy-1-phenylethyl)-1-piperazinyl][5-(4-methoxyphenyl)-6-methyl-7-(trifluoromethyl)pyrazolo[1,5-α]pyrimidin-3-yl]-], the IC50 in assay [1] and in assay [2] was < 1000 nM each time.

The record behind these values is US20090215778A1, “Alpha-substituted Arylmethyl Piperazine Pyrazolo [1,5-alpha]Pyrimidine Amide Derivatives” (priority 2007, published 2009).
